One test addresses Thymidine kinase (Human herpesvirus 2). The test is described as follows: Inhibition of TdR phosphorylation using thymidine kinase (TK) assay for herpes simplex virus type 2 (HSV-2).
Take `CCCCCCNC1=NC(=O)C2N=CN([C@H]3C[C@H](O)[C@@H](CO)O3)C2=N1` (stereo partly specified): the Ki was 2 µM.

The next test has the same target. Described as above. The source holds these as a separate data set.
As to `O=c1[nH]c(Nc2cccc(C(F)(F)F)c2)nc2nc[nH]c12` [2-(3-Trifluoromethyl-phenylamino)-1,9-dihydro-purin-6-one], the IC50 was found to be 0.1 µM.

For the molecule `O=c1[nH]c(NCc2ccc(Cl)cc2)nc2nc[nH]c12`, 5.5 µM corresponded to half-maximal inhibition (IC50). Against the preceding molecule, the IC50 is about 55-fold higher.

`CCc1cccc(Nc2nc3nc[nH]c3c(=O)[nH]2)c1` displayed an IC50 of 4 µM.

As to `Cc1ccc(Nc2nc3nc[nH]c3c(=O)[nH]2)cc1`, 6 µM corresponded to half-maximal inhibition (IC50). This IC50 is about 1.5-fold higher than that of the molecule before.

Regarding `O=c1[nH]c(Nc2ccc3ccccc3c2)nc2nc[nH]c12`, 10 µM corresponded to half-maximal inhibition (IC50).

In turn, `CCCCCCNc1nc2nc[nH]c2c(=O)[nH]1` [2-Hexylamino-1,9-dihydro-purin-6-one] showed an IC50 of 10 µM.

With `O=c1[nH]c(Nc2ccc(Br)c(Br)c2)nc2nc[nH]c12`, the IC50 was found to be 1.3 µM.

In turn, `O=c1[nH]c(Nc2ccc(Br)cc2)nc2nc[nH]c12` had an IC50 of 0.6 µM.

Turning to `O=c1[nH]c(Nc2ccc(F)c(Cl)c2)nc2nc[nH]c12`, the midpoint of inhibition, the IC50, lay at 2.5 µM.

`O=c1[nH]c(Nc2ccc(O)cc2)nc2nc[nH]c12` came in with an IC50 of 20 µM. Against the preceding molecule, the IC50 is about 8-fold higher.

As for `O=c1[nH]c(Nc2ccc(C(F)(F)F)cc2)nc2nc[nH]c12`, the IC50 was 40 µM.

As to `O=c1[nH]c(Nc2cccc(Cl)c2)nc2nc[nH]c12`, the IC50 was 0.35 µM.

Take `O=c1[nH]c(NCCCCCO)nc2nc[nH]c12`: the midpoint of inhibition, the IC50, lay at 40 µM.

As for `O=c1[nH]c(Nc2cccc(CO)c2)nc2nc[nH]c12`, the IC50 came to 20 µM.

Molecule `O=c1[nH]c(Nc2ccc(F)c(F)c2)nc2nc[nH]c12` came in with an IC50 of 2.2 µM.

As a reminder, the Ki is the dissociation constant of the complex between target and ligand, obtained from inhibition or displacement. Higher therefore signals weaker binding. The term IC50 denotes the concentration that inhibits the measured activity by half. Read a low IC50 as greater potency in that assay.
